Assay results: patent publication US6818621B2, “Osteopontin-derived chemotactic and inhibitory agents and uses therefor” (Children's Medical Center Corporation, priority 1999, dated 2004)
Marks after values point to notes of the source that are not given here.

How the values were obtained:
[1] = tested on: MDA-MB-231 cells (CD44+ human breast adenocarcinoma cells); experiment: Chemotactic chamber (Boyden) assay, migration through polycarbonate filters; type: cell-based; details: for mean number of migrating cells per random high power field: Table 1, 4 hours; for mean number of migrating cells per six random high powered fields: Table 2; for Migratory Index: Table 3, cells migrating in response to peptide/cells migration in response to LVLDPK; for MI buffer / MI: Table 4; for MI buffer: cells migrating in response to peptide divided by cells migrating in response to buffer; for MI: migratory index
Protocol: Each peak was then tested for mediation of chemotaxis or for its ability to inhibit OPN mediated chemotaxis using the chemotactic assay as follows (see e.g., Weber et al. (1996) Science 271:509-512). Briefly, uncoated polycarbonated filters (pore size […] ) were used to separate the upper and lower chambers of chemotactic wells. 1×10^3 MDA-MB-231 cells (CD44^+human breast adenocarcinoma cells) were added to the upper chamber and incubated in the presence or absence of the indicated 50 pmols peptide. After 4 hours, the filters were removed, fixed in methanol arid stained with hematoxylin and eosin. Cells which have responded to the peptide, migrate to various areas of the lower surface and can be counted microscopically. Each data point is reported as the mean number of migrating cells per random high power field.
Peptide 51 was identified as being chemotactic. The peptide was sequenced using a gas-phase sequenator and determined to have the sequence LVLDPK (SEQ ID NO:1). To confirm that chemotaxis was due to this peptide, a 16 amino acid peptide spanning the chemotactic sequence in OPN was synthesized and tested for its chemotactic properties. The resulting peptide, SP64 has the sequence KFHSHKDKLVLDPKSK (SEQ ID NO:2) and containing the chemotactic sequence from residues 9-14. 2×10^4 MDA-MB-231 cells were assayed for chemotactic response to the indicated peptides as described above. Each data point is reported as the mean number of migrating cells per six random high powered fields ± standard error of the mean. Each experiment was repeated four times.
To test the amino acid specificity for chemotactic response several substitutions were created in the chemotactic sequence and the new peptides tested for their ability to induce chemotaxis. Data are expressed as migratory index (cells migrating in response to peptide/cells migration in response to LVLDPK, SEQ ID NO:1).
(§1) To evaluate the potential of peptide analogues to inhibit OPN induced chemotaxis, 100 nmoles of peptide was added to the lower compartment and the response of these cells to OPN was determined as described. MI(buffer) was calculated by dividing the number of cells migrating in response to peptide by the number of cells migrating in response to buffer. MI(inhibitory) equals the number of cells migrating towards OPN in the presence of buffer divided by the number migrating towards OPN in the presence of peptide.

MDA-MB-231 cells = experiment: Inhibition of OPN induced chemotaxis in the chemotactic chamber assay; type: cell-based, human; details: Table 4; 100 nmoles of peptide; cells migrating towards OPN in presence of buffer divided by number migrating towards OPN in presence of peptide
Protocol: as §1

[2] = tested on: cells recruited into the peritoneum; experiment: In vivo chemotaxis after injection of peptide into the peritoneal cavity, lavage and flow cytometry; parameters: species or system C57 black mice; details: for induction ratio, Total / induction ratio, Total CD44 / induction ratio, B-lymphocytes / induction ratio, T-lymphocytes / induction ratio, Monocytes: 25 nmols i.p., 6 hours, normalized to PBS-injected mouse, average of 6 mice; for induction ratio, B-lymphocytes: B220+; for induction ratio, T-lymphocytes: CD3+; for induction ratio, Monocytes: Mac-1+; for chemotactic activity in vivo (in words): mouse
Protocol: Since the peptide LVLDPK (SEQ ID NO:1) was chemotactic to tumor cells and macrophages in vitro, we tested whether the peptide was chemotactic in vivo. 25 nmols of the peptide were injected into the peritoneal cavity of C57 black mice. After six hours the cells recruited into the peritoneum were recovered by lavage and identified by flow cytometry. Titration of soluble peptides into the peritoneum induces a cellular infiltrate in a dose dependent manner. The induction ratio is the number of cells of a particular lineage recovered from the peritoneum of a peptide-injected mouse (e.g., 6 hours after injection) normalized for each experiment to the number of cells of the same lineage recovered from the peritoneum of a PBS-injected mouse. Cell numbers for PBS-injected mice ranged from […] to 646,000 cells total; 182,300 to 325,000 CD44^+ cells; 224,000 to 496,000 […] cells; 31,300 to 76,000 B220^+ cells; 18,100 to 21,100 CD3^+ cells), representing the induction of macrophages (Mac-1^+), B cells (B220^+), and T cells (CD3^+). Values represent an average of 6 mice.

## LVLDPK (OTHER INFORMATION: Description of Artificial Sequence:Synthetic Peptide) [peptide 51, chemotactic tryptic peptide of osteopontin]
[1]
  chemotactic activity (in words): chemotactic
  Migratory Index: 1
  MI buffer: 10
  MI: 1
[1]; labelled peptide (50 pmols) in lower chamber, PBS in upper chamber, 1×10^3 cells
  mean number of migrating cells per random high power field: 68* cells per random high power field
[1]; labelled peptide in lower chamber, peptide 49 in upper chamber
  mean number of migrating cells per random high power field: 83* cells per random high power field
[1]; labelled peptide in lower chamber, peptide 50 in upper chamber
  mean number of migrating cells per random high power field: 56* cells per random high power field
[1]; labelled peptide in lower chamber, peptide 51 in upper chamber
  mean number of migrating cells per random high power field: 32 cells per random high power field
[1]; labelled peptide in lower chamber, peptide 52 in upper chamber
  mean number of migrating cells per random high power field: 78* cells per random high power field
[1]; labelled peptide in lower chamber, peptide 53 in upper chamber
  mean number of migrating cells per random high power field: 62* cells per random high power field
[1]; labelled peptide in upper chamber, PBS in lower chamber
  mean number of migrating cells per random high power field: 13 cells per random high power field
[1]; labelled agent in lower chamber, Ab64 in upper chamber
  mean number of migrating cells per six random high powered fields: 21 cells per six random high powered fields
[1]; labelled agent in lower chamber, OPN in upper chamber
  mean number of migrating cells per six random high powered fields: 48 cells per six random high powered fields
[1]; labelled agent in lower chamber, PBS in upper chamber, 2×10^4 cells
  mean number of migrating cells per six random high powered fields: 248 cells per six random high powered fields
[1]; labelled agent in lower chamber, SP64 in upper chamber
  mean number of migrating cells per six random high powered fields: 109 cells per six random high powered fields
[1]; labelled agent in lower chamber, pep 51 in upper chamber
  mean number of migrating cells per six random high powered fields: 65 cells per six random high powered fields
[1]; labelled agent in upper chamber, PBS in lower chamber
  mean number of migrating cells per six random high powered fields: 6 cells per six random high powered fields
[1]; p<0.01, 200 ng of bone OPN
  chemotactic response of MDA-MB231 (in words): stimulated the chemotactic response
MDA-MB-231 cells
  MI inhibitory: 10
[2]
  induction ratio, Total: 8.6*
  induction ratio, Total CD44: 7.9*
  induction ratio, B-lymphocytes: 1.3
  induction ratio, T-lymphocytes: 1.3
  induction ratio, Monocytes: 7.1*
  chemotactic activity in vivo (in words): chemotactic to macrophages in vivo

## LVPDPK (OTHER INFORMATION: Description of Artificial Sequence:Synthetic Peptide) [pepB]
[1]
  Migratory Index: 1
  MI buffer: 10
  MI: 1
MDA-MB-231 cells
  MI inhibitory: 8

## LVPDSK (OTHER INFORMATION: Description of Artificial Sequence:Synthetic Peptide) [pepC]
[1]
  Migratory Index: 1
  MI buffer: 7
  MI: 1
MDA-MB-231 cells
  MI inhibitory: 10

## VLDPK (OTHER INFORMATION: Description of Artificial Sequence:Synthetic Peptide) [pepF]
[1]
  Migratory Index: 0.7
  MI buffer: 6
  MI: 0.7
MDA-MB-231 cells
  MI inhibitory: 7
[2]
  induction ratio, Total: 4
  induction ratio, Total CD44: 3.1
  induction ratio, B-lymphocytes: 1.1
  induction ratio, T-lymphocytes: 0.8
  induction ratio, Monocytes: 2.8
  chemotactic activity in vivo (in words): chemotactic but exhibited less activity
